Data from patent publication US10654808B2, “Tyrosine kinase inhibitor and pharmaceutical composition comprising same” (GUANGDONG RAYNOVENT BIOTECH CO., LTD., priority 2015, dated 2020).

What was measured:
Type in all cases: biochemical
FGFR1 = target: T1, FGFR1 (Homo sapiens, UniProt P11362); test: Z'-LYTE in vitro enzyme activity assay, FGFR1; details: 25 μM ATP, 60 minutes, room temperature; read-out: IC50 detected by Z'-LYTE, FGFR1
T1 construct: purchased Life technology
How it was run: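 Z′-LYTE FRET assay with 1 nM FGFR1, 2 μM Tyr4 peptide and 25 μM ATP in HEPES pH 7.5 with Mg/Mn, 60 min at room temperature, then development 60 min at 23 °C. Compounds tested at 11 concentrations from 10 μM to 0.17 nM in 1% DMSO. IC50 from 4-parameter fit of inhibition.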

PDGFRB = target: T2, PDGFRB (Homo sapiens, UniProt P09619); test: Z'-LYTE in vitro enzyme activity assay, PDGFRB; details: 100 μM ATP, 60 minutes, room temperature; read-out: IC50 detected by Z'-LYTE, PDGFRB
T2 construct: purchased Millipore
How it was run: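 Z′-LYTE FRET kinase assay using 40 nM PDGFRB, 2 μM Tyr4 peptide and 100 μM ATP in HEPES pH 7.5 with Mg2+/Mn2+ and 1% DMSO. The reaction ran 60 min at room temperature, followed by development for 60 min at 23 °C. IC50 values came from 4-parameter fits over 11 concentrations (10 μM–0.17 nM).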

VEGFR2 = target: T3, VEGFR2 (Homo sapiens, UniProt P35968); test: Z'-LYTE in vitro enzyme activity assay, VEGFR2; details: 100 μM ATP, 60 minutes, room temperature; read-out: IC50 detected by Z'-LYTE, VEGFR2
T3 construct: purchased Life technology
How it was run: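 Reaction with 3 nM VEGFR2, 2 μM Tyr1 peptide and 100 μM ATP in HEPES pH 7.5/MgCl2/EGTA/BRIJ-35, 1% DMSO, 60 min at room temperature; development reagent then 60 min at 23° C. Compounds tested at 11 threefold dilutions, 10 μM–0.17 nM final, in duplicate; IC50 from 4-parameter fit of inhibition.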

T2 sequence (P09619 33-1106): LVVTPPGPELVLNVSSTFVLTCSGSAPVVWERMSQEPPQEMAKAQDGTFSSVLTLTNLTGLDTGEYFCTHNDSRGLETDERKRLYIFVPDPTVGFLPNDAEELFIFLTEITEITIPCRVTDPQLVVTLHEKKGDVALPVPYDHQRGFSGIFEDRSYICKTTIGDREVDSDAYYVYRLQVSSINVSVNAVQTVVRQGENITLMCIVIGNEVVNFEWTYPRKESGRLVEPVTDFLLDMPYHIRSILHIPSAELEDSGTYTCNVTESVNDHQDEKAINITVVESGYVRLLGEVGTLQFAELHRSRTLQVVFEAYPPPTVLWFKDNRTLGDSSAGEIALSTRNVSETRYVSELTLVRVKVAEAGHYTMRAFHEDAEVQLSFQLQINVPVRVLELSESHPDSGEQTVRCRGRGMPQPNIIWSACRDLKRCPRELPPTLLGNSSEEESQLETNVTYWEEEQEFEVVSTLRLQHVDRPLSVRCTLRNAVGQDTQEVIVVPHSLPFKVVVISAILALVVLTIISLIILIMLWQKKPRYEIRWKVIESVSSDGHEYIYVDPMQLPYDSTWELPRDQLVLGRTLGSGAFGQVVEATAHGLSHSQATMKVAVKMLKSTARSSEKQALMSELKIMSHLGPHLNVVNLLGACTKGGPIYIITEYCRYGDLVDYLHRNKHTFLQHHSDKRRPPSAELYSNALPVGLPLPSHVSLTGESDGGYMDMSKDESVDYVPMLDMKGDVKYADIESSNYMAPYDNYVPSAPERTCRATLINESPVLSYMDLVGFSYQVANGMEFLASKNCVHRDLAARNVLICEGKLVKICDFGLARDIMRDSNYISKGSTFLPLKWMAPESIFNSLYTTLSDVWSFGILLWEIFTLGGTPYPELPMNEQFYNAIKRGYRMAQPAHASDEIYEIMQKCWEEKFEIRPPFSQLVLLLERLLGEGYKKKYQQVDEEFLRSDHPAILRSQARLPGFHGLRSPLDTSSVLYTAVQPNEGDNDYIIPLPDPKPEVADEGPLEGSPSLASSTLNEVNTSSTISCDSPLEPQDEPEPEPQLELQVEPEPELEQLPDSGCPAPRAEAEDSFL
T1 sequence (P11362 22-822): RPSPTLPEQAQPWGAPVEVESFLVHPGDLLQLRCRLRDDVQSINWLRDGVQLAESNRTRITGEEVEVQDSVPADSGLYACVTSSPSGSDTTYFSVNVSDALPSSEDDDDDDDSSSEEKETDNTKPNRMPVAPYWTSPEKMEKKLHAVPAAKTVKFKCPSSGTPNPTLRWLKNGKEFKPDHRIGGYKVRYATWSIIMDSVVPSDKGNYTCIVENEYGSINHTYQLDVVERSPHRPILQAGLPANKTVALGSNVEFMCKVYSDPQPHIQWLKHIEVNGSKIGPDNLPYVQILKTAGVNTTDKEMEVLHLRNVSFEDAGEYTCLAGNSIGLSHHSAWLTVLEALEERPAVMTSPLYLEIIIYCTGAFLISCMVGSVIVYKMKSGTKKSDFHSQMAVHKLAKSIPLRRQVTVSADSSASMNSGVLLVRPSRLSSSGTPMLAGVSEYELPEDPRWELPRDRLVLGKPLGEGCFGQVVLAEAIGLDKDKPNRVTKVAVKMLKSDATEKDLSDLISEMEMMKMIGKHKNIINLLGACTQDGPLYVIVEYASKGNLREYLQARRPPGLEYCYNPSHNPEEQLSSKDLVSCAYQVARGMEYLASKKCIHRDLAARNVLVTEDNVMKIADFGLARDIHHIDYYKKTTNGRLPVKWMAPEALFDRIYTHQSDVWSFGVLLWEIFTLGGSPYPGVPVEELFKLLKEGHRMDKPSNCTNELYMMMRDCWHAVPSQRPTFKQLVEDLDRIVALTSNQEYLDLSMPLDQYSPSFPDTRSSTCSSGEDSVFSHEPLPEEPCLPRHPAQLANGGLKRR
T3 sequence (P35968 20-1356): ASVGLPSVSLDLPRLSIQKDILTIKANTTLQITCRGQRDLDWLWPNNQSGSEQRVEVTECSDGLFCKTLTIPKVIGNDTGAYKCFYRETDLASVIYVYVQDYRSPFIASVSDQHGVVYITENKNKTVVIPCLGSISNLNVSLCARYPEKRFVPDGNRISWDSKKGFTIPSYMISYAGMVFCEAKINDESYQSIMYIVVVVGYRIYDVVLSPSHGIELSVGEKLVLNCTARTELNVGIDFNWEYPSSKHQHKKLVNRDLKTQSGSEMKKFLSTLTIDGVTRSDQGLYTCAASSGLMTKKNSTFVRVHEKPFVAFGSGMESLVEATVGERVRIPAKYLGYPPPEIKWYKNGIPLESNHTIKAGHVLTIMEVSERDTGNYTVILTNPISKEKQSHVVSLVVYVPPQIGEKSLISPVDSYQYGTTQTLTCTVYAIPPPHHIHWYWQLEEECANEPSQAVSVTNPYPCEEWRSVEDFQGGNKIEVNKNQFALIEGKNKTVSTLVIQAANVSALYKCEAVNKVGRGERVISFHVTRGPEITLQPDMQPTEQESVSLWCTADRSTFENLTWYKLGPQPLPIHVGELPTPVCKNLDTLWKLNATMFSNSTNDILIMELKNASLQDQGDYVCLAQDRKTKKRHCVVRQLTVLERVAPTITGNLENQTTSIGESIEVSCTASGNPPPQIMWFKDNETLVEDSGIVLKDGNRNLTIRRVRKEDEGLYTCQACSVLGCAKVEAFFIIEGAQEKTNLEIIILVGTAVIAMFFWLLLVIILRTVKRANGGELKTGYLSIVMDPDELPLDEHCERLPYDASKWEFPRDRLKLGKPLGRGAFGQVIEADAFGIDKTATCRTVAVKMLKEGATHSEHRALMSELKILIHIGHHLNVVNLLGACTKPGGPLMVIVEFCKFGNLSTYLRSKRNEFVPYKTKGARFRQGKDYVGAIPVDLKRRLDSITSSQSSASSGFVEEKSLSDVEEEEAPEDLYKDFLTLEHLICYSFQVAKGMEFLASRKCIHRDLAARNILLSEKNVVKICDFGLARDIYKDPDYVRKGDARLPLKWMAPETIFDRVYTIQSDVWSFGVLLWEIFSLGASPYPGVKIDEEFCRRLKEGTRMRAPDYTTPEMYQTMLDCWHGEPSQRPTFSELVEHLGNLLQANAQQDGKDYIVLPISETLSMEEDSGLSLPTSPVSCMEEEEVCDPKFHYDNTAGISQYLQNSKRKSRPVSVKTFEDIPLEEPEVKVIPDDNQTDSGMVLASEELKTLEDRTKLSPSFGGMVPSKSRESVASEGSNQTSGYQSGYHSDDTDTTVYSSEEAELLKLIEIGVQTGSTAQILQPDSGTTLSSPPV

Row | Compound | IC50 (FGFR1) [nM] | IC50 (PDGFRB) [nM] | IC50 (VEGFR2) [nM]
1 | COc1cc2nccc(Oc3ccc(Nc4c(Nc5cccc(C(F)(F)F)c5)c(=O)c4=O)c(Cl)c3)c2cc1C(N)=O [Example 155] | 200 to 1000 | < 50 | 200 to 1000
2 | COc1cc2nccc(Oc3ccc4nc(NCC(C)C)sc4c3)c2cc1C(N)=O [Example 156] | 200 to 1000 | 200 to 1000 | 200 to 1000
3 | COc1cc2nccc(Oc3ccc4nc(NCC(F)F)sc4c3)c2cc1C(N)=O [Example 157] | 200 to 1000 | 200 to 1000 | 200 to 1000
4 | COc1cc2nccc(Oc3ccc4nc(NC5CCC5)sc4c3)c2cc1C(N)=O [Example 158] | 200 to 1000 | 200 to 1000 | 200 to 1000
5 | COc1cc2nccc(Oc3ccc4nc(NCc5cccc(C(F)(F)F)c5)sc4c3)c2cc1C(N)=O [Example 161] | 200 to 1000 | 200 to 1000 | 200 to 1000
6 | COc1cc2nccc(Oc3ccc4[nH]cc(C#N)c4c3)c2cc1C(N)=O [Example 162] | 200 to 1000 | 200 to 1000 | 200 to 1000
7 | COc1cc2nccc(Oc3ccc4c(c3)CN(CC(F)F)C(=O)N4)c2cc1C(N)=O [Example 164] | 200 to 1000 | 200 to 1000 | 200 to 1000
8 | COc1cc2nccc(Oc3ccc(N4CCNC4=O)c(Cl)c3)c2cc1C(N)=O [Example 165] | 200 to 1000 | 200 to 1000 | 200 to 1000
9 | COc1cc2nccc(Oc3ccc(N4C(=O)CNC4=S)c(Cl)c3)c2cc1C(N)=O [Example 166] | 200 to 1000 | 50 to 200 | < 50
10 | COc1cc2nccc(Oc3ccc(N4CC(=O)NC4=S)c(Cl)c3)c2cc1C(N)=O [Example 167] | 200 to 1000 | < 50 | < 50
11 | COc1cc2nccc(Oc3ccc(NC(=O)C4(C(=O)NC5CC5)CC4)c(Cl)c3)c2cc1C(N)=O [Example 168] | 200 to 1000 | 200 to 1000 | 200 to 1000
12 | COc1ccc2c(Oc3ccc(NC(=S)NC4CC4)c(Cl)c3)ccnc2c1 [Example 170] | 200 to 1000 | 200 to 1000 | < 50
13 | COc1ccc2c(Oc3ccc(NC(=S)N4CC(F)(F)C4)c(Cl)c3)ccnc2c1 [Example 171] | 200 to 1000 | 200 to 1000 | 200 to 1000
14 | CC1(C)NC(=O)c2cc3c(Oc4ccc(NC(=S)NC5CC5)c(Cl)c4)ccnc3cc2O1 [Example 172] | 200 to 1000 | 200 to 1000 | 200 to 1000
15 | CCC1NC(=O)c2cc3c(Oc4ccc(NC(=S)NC5CC5)c(Cl)c4)ccnc3cc2O1 (stereo not drawn) [Example 173] | 200 to 1000 | 200 to 1000 | 200 to 1000
16 | COc1cc2nccc(Oc3ccc(NC(=S)NC4CC4)c(Cl)c3)c2cc1C(C)(C)O [Example 175] | 200 to 1000 | 200 to 1000 | 200 to 1000
17 | COc1cc2nccc(Oc3ccc(CC(=O)N4CCCC4)cc3)c2cc1C(N)=O [Example 176] | 200 to 1000 | 200 to 1000 | 200 to 1000
18 | COc1cc2nccc(Oc3ccc(CC(=O)N4CC(F)(F)C4)cc3)c2cc1C(N)=O [Example 177] | 200 to 1000 | 50 to 200 | 200 to 1000
19 | COC(=O)c1cc2c(Oc3ccc(NC(=S)N4CC(F)(F)C4)c(Cl)c3)ccnc2cc1OC [Example 178] | 200 to 1000 | 200 to 1000 | 200 to 1000
20 | COc1cc2nccc(Oc3ccc(NC(=S)N4CC(F)(F)C4)c(Cl)c3)c2cc1NC(C)=O [Example 180] | 200 to 1000 | 200 to 1000 | 200 to 1000
21 | COc1cc2nccc(Oc3ccc(NC(=S)N4CCCC4)c(Cl)c3)c2cc1NC(C)=O [Example 181] | 200 to 1000 | 200 to 1000 | 200 to 1000
22 | COc1cc2nccc(Oc3ccc(NC(=S)NC4CC4)c(Cl)c3)c2cc1NC(C)=O [Example 182] | 200 to 1000 | 200 to 1000 | 50 to 200
23 | COc1cc2nccc(Oc3ccc(NC(=S)N4CC(F)(F)C4)c(Cl)c3)c2cc1C(F)(F)F [Example 184] | 200 to 1000 | 200 to 1000 | 200 to 1000
